The values below come from ChEMBL document CHEMBL1743201, “Casarett and Doull's Toxicology The Basic Science of Poisons, 7th edition” (2008).

For one data set, the target named is T1, Glutathione S-transferase A1 (Homo sapiens, UniProt P08263).
T1 sequence (P08263 whole entry): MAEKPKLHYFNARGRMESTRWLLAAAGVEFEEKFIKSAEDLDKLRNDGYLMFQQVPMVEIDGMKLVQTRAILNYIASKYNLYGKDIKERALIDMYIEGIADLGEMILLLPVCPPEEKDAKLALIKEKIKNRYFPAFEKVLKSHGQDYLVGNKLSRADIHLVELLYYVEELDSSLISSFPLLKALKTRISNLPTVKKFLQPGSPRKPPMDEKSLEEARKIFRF
The data set is described as follows: Substrates for human cytosolic glutathione transferase GSTA1. Format: ADME.
Conditions: not given
Regarding `OC1c2ccc3c4ccccc4c4ccccc4c3c2C2OC2C1O` (stereo not given) [BENZO[G]CHRYSENE DIOL EPOXIDE], the Activity result was “Substrate”.

As for `Cn1c(N)nc2ncc(-c3ccccc3)cc21` [2-AMINO-1-METHYL-6- PHENYLIMIDAZO[4,5- B]PYRIDINE], the Activity result is “Substrate”.

As for `CS(=O)(=O)OCCCCOS(C)(=O)=O` [BUSULFAN], the Activity result was “Substrate”.

`OC1c2ccc3ccc4ccccc4c3c2C2OC2C1O` (stereo not given) [BENZO[C]PHENANTHRENE DIOL EPOXIDE]: the Activity result is on record as “Substrate”.

The target in a further data set is T2, Sulfotransferase 1E1 (Homo sapiens, UniProt P49888).
T2 sequence (P49888 whole entry): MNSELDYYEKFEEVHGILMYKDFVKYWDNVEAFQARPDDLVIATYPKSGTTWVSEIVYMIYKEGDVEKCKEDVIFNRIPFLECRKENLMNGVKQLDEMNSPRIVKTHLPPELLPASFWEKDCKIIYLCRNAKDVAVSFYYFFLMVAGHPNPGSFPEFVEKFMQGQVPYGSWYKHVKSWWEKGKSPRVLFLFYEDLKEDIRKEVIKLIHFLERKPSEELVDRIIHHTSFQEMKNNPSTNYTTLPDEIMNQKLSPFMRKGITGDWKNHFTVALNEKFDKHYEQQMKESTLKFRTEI
Put plainly: Major substrate of human cytosolic sulfotransferase SULT1E1. It counts as ADME.
Conditions: not given
Consider `C[C@]12CC[C@@H]3c4cc(O)c(O)cc4CC[C@H]3[C@@H]1CCC2=O` [2-HYDROXYESTRONE], for which the Activity result is “Substrate”.

With `C[C@]12CCc3c(ccc4cc(O)ccc34)[C@@H]1CCC2=O` [EQUILENIN], the Activity result is on record as “Substrate”.

Turning to `O=C(O)Cc1cn(-c2ccc(O)cc2)nc1-c1ccc(Cl)cc1`, the Activity result was “Substrate”.

For the molecule `CC/C(=C(\c1ccccc1)c1ccc(OCCN(C)C)cc1)c1ccccc1` [TAMOXIFEN], the Activity entry is “Substrate”.

In the case of `C[C@]12CC[C@@H]3c4ccc(O)c(O)c4CC[C@H]3[C@@H]1CC[C@@H]2O`, the Activity entry is “Substrate”.

`C[C@]12CC[C@@H]3c4cc(O)c(O)cc4CC[C@H]3[C@@H]1CC[C@@H]2O`: the Activity result is reported as “Substrate”.

With `O=C1C[C@@H](c2ccc(O)cc2)Oc2cc(O)cc(O)c21` [NARINGENIN], the Activity result was “Substrate”.

Another data set has as its target T3, UDP-glucuronosyltransferase 1A8 (Homo sapiens, UniProt Q9HAW9).
T3 sequence (Q9HAW9 whole entry): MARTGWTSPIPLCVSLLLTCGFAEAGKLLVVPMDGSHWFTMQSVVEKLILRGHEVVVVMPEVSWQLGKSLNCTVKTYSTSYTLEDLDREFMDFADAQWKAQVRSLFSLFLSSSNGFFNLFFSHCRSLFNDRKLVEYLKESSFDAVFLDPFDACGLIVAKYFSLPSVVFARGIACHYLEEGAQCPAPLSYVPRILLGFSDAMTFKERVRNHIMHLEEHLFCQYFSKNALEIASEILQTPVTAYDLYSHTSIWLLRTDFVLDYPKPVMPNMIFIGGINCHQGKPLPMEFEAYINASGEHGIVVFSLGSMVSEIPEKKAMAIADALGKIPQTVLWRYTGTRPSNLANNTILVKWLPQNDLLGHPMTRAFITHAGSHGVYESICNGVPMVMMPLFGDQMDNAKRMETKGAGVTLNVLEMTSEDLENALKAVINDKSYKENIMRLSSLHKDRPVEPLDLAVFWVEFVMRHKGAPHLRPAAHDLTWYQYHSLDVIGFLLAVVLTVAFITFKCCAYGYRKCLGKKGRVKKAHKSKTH
Put plainly: Substrate of human UDP-glucuronosyltransferase UGT1A8. Format: ADME.
Conditions: not given
On to `O=C(O)c1cc(-c2ccc(F)cc2F)ccc1O` [DIFLUNISAL], for which the Activity result is “Substrate”.

Take `O=C1c2ccccc2C(=O)c2ccccc21` [ANTHRAQUINONE]: the Activity entry is on record as “Substrate”.

Take `CC(C)(Oc1ccc(Cl)cc1)C(=O)O` [CLOFIBRIC ACID]: the Activity entry is on record as “Substrate”.

For the molecule `CC(C)(Oc1ccc(C2CC2(Cl)Cl)cc1)C(=O)O` (stereo not given) [CIPROFIBRATE], the Activity entry is on record as “Substrate”.

For the molecule `O=C(O)c1cccnc1Nc1cccc(C(F)(F)F)c1` [NIFLUMIC ACID], the Activity result is reported as “Substrate”.

With `Oc1cccc2cccnc12` [OXYQUINOLINE], the Activity entry is on record as “Substrate”.

The target of a further data set is T4, Sulfotransferase 2A1 (Homo sapiens, UniProt Q06520).
T4 sequence (Q06520 whole entry): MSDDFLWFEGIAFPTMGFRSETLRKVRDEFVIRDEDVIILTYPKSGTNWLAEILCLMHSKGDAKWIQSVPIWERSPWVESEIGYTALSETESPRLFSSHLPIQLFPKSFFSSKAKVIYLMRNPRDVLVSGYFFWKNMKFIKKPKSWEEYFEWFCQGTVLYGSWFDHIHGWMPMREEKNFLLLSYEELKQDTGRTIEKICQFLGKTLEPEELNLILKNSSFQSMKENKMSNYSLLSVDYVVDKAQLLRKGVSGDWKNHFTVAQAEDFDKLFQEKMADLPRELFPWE
The data set is described as follows: Major substrate of human cytosolic sulfotransferase SULT2A1. Format: ADME.
Conditions: not given
`OCc1c2ccccc2c2ccc3cccc4ccc1c2c43`: the Activity result is on record as “Substrate”.

Turning to `CCCC1O[C@@H]2C[C@H]3[C@@H]4CCC5=CC(=O)C=C[C@]5(C)[C@H]4[C@@H](O)C[C@]3(C)[C@]2(C(=O)CO)O1` (stereo not given in full) [BUDESONIDE], the Activity result was “Substrate”.

For `CCN(CC)CCNc1ccc(CO)c2sc3ccccc3c(=O)c12` [HYCANTHONE], the Activity entry was “Substrate”.

For a further data set, the target named is Sulfotransferase 1A1 (Homo sapiens, UniProt P50225). Put plainly: Major substrate of human cytosolic sulfotransferase SULT1A1. Format: ADME.
Chain of Sulfotransferase 1A1 (P50225 whole entry): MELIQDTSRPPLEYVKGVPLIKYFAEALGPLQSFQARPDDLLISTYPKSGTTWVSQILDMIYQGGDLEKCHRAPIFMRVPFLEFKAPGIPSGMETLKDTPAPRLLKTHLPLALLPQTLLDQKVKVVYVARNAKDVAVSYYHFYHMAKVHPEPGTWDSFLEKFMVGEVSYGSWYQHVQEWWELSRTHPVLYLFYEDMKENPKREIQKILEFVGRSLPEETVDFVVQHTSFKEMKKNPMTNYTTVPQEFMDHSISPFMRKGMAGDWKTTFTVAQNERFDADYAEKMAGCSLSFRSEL
Conditions: not given
Take `CN1CCc2cccc3c2[C@H]1Cc1ccc(O)c(O)c1-3` [APOMORPHINE]: the Activity result is recorded as “Substrate”.

With `CCc1ccc(O)cc1`, the Activity result is recorded as “Substrate”.

For `Nc1cc(N2CCCCC2)nc(N)[n+]1[O-]` [MINOXIDIL], the Activity result is recorded as “Substrate”.

Regarding `Cc1ccc(O)cc1` [p-CRESOL], the Activity result is reported as “Substrate”.

With `Cn1c(NO)nc2ncc(-c3ccccc3)cc21`, the Activity entry is “Substrate”.

For `CC(C)[N+](=O)[O-]`, the Activity entry is “Substrate”.

The next data set concerns the target T5, UDP-glucuronosyltransferase 1A9 (Homo sapiens, UniProt O60656).
T5 sequence (O60656 whole entry): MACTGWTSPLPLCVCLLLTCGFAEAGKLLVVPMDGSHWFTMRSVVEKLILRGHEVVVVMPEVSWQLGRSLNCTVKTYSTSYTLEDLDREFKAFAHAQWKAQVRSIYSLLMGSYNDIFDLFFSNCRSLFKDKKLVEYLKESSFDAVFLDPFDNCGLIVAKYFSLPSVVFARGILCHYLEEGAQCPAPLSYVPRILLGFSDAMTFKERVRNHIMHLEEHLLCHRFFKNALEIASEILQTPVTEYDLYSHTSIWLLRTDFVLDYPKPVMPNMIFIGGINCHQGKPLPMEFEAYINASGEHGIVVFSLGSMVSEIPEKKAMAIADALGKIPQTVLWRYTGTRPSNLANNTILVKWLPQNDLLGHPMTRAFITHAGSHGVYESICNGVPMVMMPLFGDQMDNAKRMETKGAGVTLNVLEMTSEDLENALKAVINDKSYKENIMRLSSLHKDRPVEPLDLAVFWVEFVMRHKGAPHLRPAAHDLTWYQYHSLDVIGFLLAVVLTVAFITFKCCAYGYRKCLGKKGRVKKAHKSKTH
Put plainly: Substrate of human UDP-glucuronosyltransferase UGT1A9. It counts as ADME.
Conditions: not given
`O=C(O)c1ccccc1O` [SALICYLIC ACID]: the Activity entry is reported as “Substrate”.

Take `CC(C)c1cccc(C(C)C)c1O` [PROPOFOL]: the Activity entry was “Substrate”.

For `O=C(O)c1cc(-c2ccc(F)cc2F)ccc1O` [DIFLUNISAL], the Activity result is reported as “Substrate”.

On to `CCCCNc1cc(C(=O)O)cc(S(N)(=O)=O)c1Oc1ccccc1` [BUMETANIDE], for which the Activity result is given as “Substrate”.

With `CC(C)OC(=O)C(C)(C)Oc1ccc(C(=O)c2ccc(Cl)cc2)cc1` [FENOFIBRATE], the Activity result is given as “Substrate”.

A further data set addresses T6, Cytochrome P450 1A2 (Homo sapiens, UniProt P05177).
T6 sequence (P05177 whole entry): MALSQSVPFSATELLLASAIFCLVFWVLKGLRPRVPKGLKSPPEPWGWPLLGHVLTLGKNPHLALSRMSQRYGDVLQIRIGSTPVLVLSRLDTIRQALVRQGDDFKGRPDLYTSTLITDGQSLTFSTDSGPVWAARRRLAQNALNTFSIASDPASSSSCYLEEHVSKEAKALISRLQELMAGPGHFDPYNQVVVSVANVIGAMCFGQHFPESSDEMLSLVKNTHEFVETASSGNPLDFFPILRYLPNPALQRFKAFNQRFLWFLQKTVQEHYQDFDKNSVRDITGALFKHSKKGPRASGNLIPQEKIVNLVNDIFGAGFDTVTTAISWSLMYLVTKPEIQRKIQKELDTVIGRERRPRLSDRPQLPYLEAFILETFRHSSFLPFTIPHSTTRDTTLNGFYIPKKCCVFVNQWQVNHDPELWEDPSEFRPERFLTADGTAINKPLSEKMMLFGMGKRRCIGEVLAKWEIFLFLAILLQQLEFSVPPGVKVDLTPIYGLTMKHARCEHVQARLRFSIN
The data set is described as follows: Clinically relevant substrates of human liver microsomal P450 enzymes, isoform CYP1A2. It counts as ADME. As to conditions: microsomes. In general terms: Microsomes from liver hold many membrane-bound enzymes, among them those of drug oxidation.
Regarding `Cn1c(=O)c2[nH]cnc2n(C)c1=O.O` [THEOPHYLLINE], the Activity result was “Substrate”.

Take `CCOc1ccc(NC(C)=O)cc1` [PHENACETIN]: the Activity result is recorded as “Substrate”.

For the molecule `Cn1c(=O)c2c(ncn2C)n(C)c1=O` [CAFFEINE], the Activity result is “Substrate”.

In the case of `CCOc1ccc2nc3ccc(=O)cc-3oc2c1` [ETHOXYRESORUFIN], the Activity entry is on record as “Substrate”.

As to `CNCC[C@H](Oc1cccc2ccccc12)c1cccs1` [DULOXETINE], the Activity entry is “Substrate”.

For `Clc1ccc2nsnc2c1NC1=NCCN1` [TIZANIDINE], the Activity result is “Substrate”.

For `Cc1[nH]cnc1CN1CCc2c(c3ccccc3n2C)C1=O` [ALOSETRON], the Activity result was “Substrate”.

A further data set has as its target T7, UDP-glucuronosyltransferase 2B7 (Homo sapiens, UniProt P16662).
T7 sequence (P16662 whole entry): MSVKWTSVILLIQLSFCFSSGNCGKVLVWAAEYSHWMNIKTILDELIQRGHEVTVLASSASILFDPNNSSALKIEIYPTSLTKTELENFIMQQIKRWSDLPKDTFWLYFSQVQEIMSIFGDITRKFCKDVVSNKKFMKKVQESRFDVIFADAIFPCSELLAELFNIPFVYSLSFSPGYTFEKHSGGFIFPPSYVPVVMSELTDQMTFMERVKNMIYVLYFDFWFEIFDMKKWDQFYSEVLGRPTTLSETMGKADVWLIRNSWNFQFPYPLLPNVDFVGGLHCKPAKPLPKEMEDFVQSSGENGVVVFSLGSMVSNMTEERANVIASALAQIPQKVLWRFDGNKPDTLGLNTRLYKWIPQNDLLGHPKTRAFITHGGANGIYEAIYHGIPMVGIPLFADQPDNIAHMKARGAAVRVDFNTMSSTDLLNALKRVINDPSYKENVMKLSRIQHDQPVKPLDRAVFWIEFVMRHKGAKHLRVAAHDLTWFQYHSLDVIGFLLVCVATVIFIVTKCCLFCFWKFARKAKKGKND
The data set is described as follows: Substrate of human UDP-glucuronosyltransferase UGT2B7. Format: ADME.
Conditions: not given
Take `CC(C(=O)O)c1ccc(C(=O)c2ccccc2)s1` (stereo not given) [TIAPROFENIC ACID]: the Activity entry is given as “Substrate”.

With `CC(C(=O)O)c1ccc2oc(-c3ccc(Cl)cc3)nc2c1` (stereo not given) [BENOXAPROFEN], the Activity result is listed as “Substrate”.

Take `C=CCN1CC[C@]23c4c5ccc(O)c4O[C@H]2C(=O)CC[C@@]3(O)[C@H]1C5` [NALOXONE]: the Activity entry is “Substrate”.

Regarding `Cc1cn([C@H]2C[C@H](N=[N+]=[N-])[C@@H](CO)O2)c(=O)[nH]c1=O` [ZIDOVUDINE], the Activity entry is “Substrate”.

On to `Cc1cc(CC(=O)O)n(C)c1C(=O)c1ccc(Cl)cc1` [ZOMEPIRAC], for which the Activity result was “Substrate”.

For the molecule `CC(C)(Oc1ccc(Cl)cc1)C(=O)O` [CLOFIBRIC ACID], the Activity result is “Substrate”.

On to `CN1CC[C@]23c4c5ccc(O)c4O[C@H]2[C@@H](O[C@@H]2O[C@H](C(=O)O)[C@@H](O)[C@H](O)[C@H]2O)C=C[C@H]3[C@H]1C5` [MORPHINE GLUCURONIDE], for which the Activity result is recorded as “Substrate”.
